This is an account of results in patent US20240016735A1, “IONIC LIQUIDS FOR DRUG DELIVERY” (PRESIDENT AND FELLOWS OF HARVARD COLLEGE, priority 2019, published 2024).

What is called pKa is the negative logarithm of the acid dissociation constant.

For series [1] the following is noted: anion of ionic liquid; cited from earlier work.
Series [2] deals with intestinal villi of Wistar rats. Briefly: In vivo local delivery of antibody-CGLY via intrajejunal administration. Conditions: rat, 1 mg mL^−1 FITC-IgG in 50% v/v CGLY2:1, 2 h.
Method: Rats receiving equivalent saline injection without FITC-IgG were used as the negative control group. After 2 h, the rats were sacrificed and jejunal tissues were harvested and preserved using Swiss-rolling technique^[14]. […] The tissues were then frozen at −80° C. in the presence of optimum cutting temperature (OCT) compound and tissue sections were cut into 25 m thickness. was visualized using a slide scanner microscope (ZEISS Axio Scan.Z1) and the images processed using Zen™ (Blue edition) software.
Another series concerns siRNA. Conditions: IL 50% (v/v), 30 min incubation, dialysis 72 h. The procedure:
(§1) Skin-penetrating IL-RNA complexes. The cholinium-based IL library was synthesized as described previously (26). Briefly, the cation, choline bicarbonate, and various anions were mixed at a 1:2 ratio to prepare ILs following salt metathesis reaction. […] The resulting IL solution was dried using a rotary evaporator at 20 mbar at 60° C. for 2 hours. The residual water was removed in a vacuum oven at 60° C. for 48 hours. The ILs that were viscous at RT were characterized via NMR with dimethyl sulfoxide (DMSO)-d6 on an Agilent DD2 600-MHz spectrometer (Supplementary Materials and Methods). ILs were mixed with RNA (100 μM) at a volumetric ratio of 1:1 and incubated for 30 min at RT. The RNA-IL solutions (1 ml) were dialyzed against 10 mM sodium phosphate buffer for 72 hours using Dialysis Cassettes (10,000 molecular weight cutoff, Invitrogen). The concentration of RNA was confirmed and normalized using a NanoDrop instrument (Thermo Fisher Scientific). The stability of the RNA in the IL solution was determined using CD and gel electrophoresis.
RNA concentrations were normalized in 10 mM sodium phosphate buffer and incubated for 30 mins at RT to ensure reduction and equilibrium, and then loaded into quartz cuvettes. Near-UV spectra were recorded from 200 nm to 310 nm at 20° C. by averaging 5 scans at 0.1 nm intervals for each sample. Spectrum Manager 2 was used to subtract the baseline and the spectra were plotted as molar ellipticity, [0] (deg.cm2.dmol-1).

For series [3] the following is noted: cation:anion 1:2.
From the text: IL selection. A library of ILs was designed and synthesized to assess siRNA delivery into skin. Cholinium was used as the cation in all ILs due to its biocompatibility. Several different anions were used to synthesize ILs (FIGS. 24A-24E). […] Other anions were chosen for several reasons. First, anions containing shorter linear carbon chains were chosen in contrast to geranic acid to assess the impact of the chain length on siRNA stability and delivery. Anions with aromatic groups were chosen since they might interact with the stacked RNA base pairs via electrostatic, hydrophobic, and polar interactions. All ILs were prepared at a stoichiometric ratio of 1:2 (cation:anion) and were assessed for stability and siRNA delivery. […] In addition, since both interleukin and ILs have been denoted as “IL,” for the purpose of clarity, all interleukins are referred by a numerical value throughout the manuscript.
as §1

The next series deals with porcine skin. The experiment in a line: Porcine skin penetration of Cy5-labeled siRNA in Franz diffusion cells (tape-stripping). In kind it is in vitro ADME. Conditions: 24 h, IL 50% v/v or naked siRNA. The procedure: Skin penetration studies. Skin penetration studies were performed using porcine skin in FDCs, as described previously (40). A total volume of 20 μl of Cy5-labeled RNA (50 μM) in IL solutions was applied to the porcine skin surface and was incubated at 40° C. for 24 hours under occlusive conditions with moderate stirring. The skin permeability of RNA was visualized and quantified using confocal microscopy and tape-stripping techniques, respectively.
Porcine skin penetration ex-vivo studies Porcine skin studies were carried out in Franz diffusion cells (FDC) with penetration area of 1.77 cm^2. The porcine skin was obtained from Lampire Biological Laboratories, Pipersville, PA, USA. Briefly skins were thawed, hairs were trimmed, and washed with phosphate buffer saline (PBS, pH 7.4). A 36 mm punch was used to cut out a disc of the skin and a scalpel was used to get rid of the connective tissues and subcutaneous fat layers. […] 1 mL PBS was added to the donor chamber and the conductivity was measured using a waveform generator (Agilent 33120) and voltmeter (Fluke 87 True RMS Multimeter) at a frequency of 100 Hz and amplitude, 100 mV. Only skin samples with a measured transepidermal conductivity of less than […] were used for further studies. […] Following incubation, the skin was removed from the cell, washed gently with PBS and were further analyzed using tape-stripping and confocal microscopy. […]

On to `CC(C)=CC(=O)O` [3,3-dimethylacrylic acid], for which the pKa in series [1] is on record as 5.02.

Take `O=S(=O)(O)c1ccc(O)cc1` [4-hydroxybenzenesulfonic acid]: the pKa in series [1] is 9.11.

Turning to `O=C(O)c1cccc(-c2ccccc2)c1` [Bipheny1-3-carboxylic acid], in series [1], the pKa is recorded as 4.14.

With `C[N+](C)(C)CCO.O=C([O-])CO` [CGLY2:1, choline-glycolate], the “FITC-IgG fluorescence signal on intestinal villi vs no-CGLY2:1 control” value in series [2] was “over 4.5 fold”.

Regarding `O=P(O)(O)Oc1ccccc1` [Phenylphosphoric acid], in series [1], the pKa was 9.99.

On to “choline and biphenyl-3-carboxylic acid [CABA]”, for which the “siRNA secondary structure (CD, band at 210 nm)” value (“siRNA secondary structure” below) with siRNA is on record as “notable alteration in the a helix backbone”. Further, the “physical state at room temperature” value in series [3] was “solidified or formed a gel”.

Take choline and dimethylacrylic acid [CADA]: the “siRNA secondary structure” value with siRNA is listed as “notable alteration in the a helix backbone”. Also, in series [3], the “physical state at room temperature” value was “viscous liquid”.

With “choline and geranic acid [CAGE, reference compound]”, the “siRNA delivered into the epidermis” value in the series with porcine skin is reported as “About 0.20 nmol/cm2”. The “siRNA secondary structure” value with siRNA is on record as “notable alteration in the a helix backbone”. The “physical state at room temperature” value in series [3] is “viscous liquid”.

Consider “choline and phenylphosphoric acid [CAPP]”, for which, in series [3], the “physical state at room temperature” value was “solidified or formed a gel”.

As to choline and phenylpropanoic acid [CAPA], the “siRNA secondary structure” value in the series with siRNA is on record as “retained the secondary structure of siRNA”. In series [3], the “physical state at room temperature” value is listed as “viscous liquid”.
